The subject of test [1] is MAP kinase. Nature of the test: "In Vivo" activity (whole cell MAP kinase assay). The settings on record: Table 2. The test is classed as cell-based. The protocol: To determine if compounds were able to block activation of MAP kinase in whole cells, the following protocol was used: Cells were plated in multi-well plates and grown to confluence. Cells were then serum-deprived overnight. Cells were exposed to the desired concentrations of compound or vehicle (DMSO) for 30 minutes, followed by addition of a growth factor, for example, PDGF (100 ng/mL). After a 5-minute treatment with the growth factor, cells were washed with PBS, then lysed in a buffer consisting of 70 mM NaCl, 10 mM HEPES (pH 7.4), 50 mM glycerol phosphate, and 1% Triton X-100. Lysates were clarified by centrifugation at 13,000×g for 10 minutes. Five micrograms of the resulting supernatants were incubated with […] microtubule associated protein-2 (Map2) for 15 minutes at 30° C. in a final volume of 25 μL containing 50 mM Tris (pH 7.4), 10 mM MgCl2, 2 mM EGTA and 30 μM [γ-^32 P]ATP. Reactions were terminated by addition of Laemmli sample buffer. Phosphorylated Map2 was resolved on 7.5% acrylamide gels and incorporated radioactivity determined by autoradiography and subsequent excision of the bands followed by scintillation counting.
The in vitro and in vivo biological activity of several representative compounds of Formula I and II in the foregoing assays is presented in Tables 1 and 2.

Test [2] concerns the target MEK (Homo sapiens, UniProt Q02750). The experiment in a line: In vitro MEK inhibition (cascade assay for inhibitors of the MAP kinase pathway / in vitro MEK assay). In kind it is biochemical. The protocol:
Incorporation of ^32 P into myelin basic protein (MBP) was assayed in the presence of a glutathione S-transferase fusion protein containing p44MAP kinase (GST-MAPK) and a glutathione S-transferase fusion protein containing p45MEK (GST-MEK). The assay solution contained 20 mM HEPES, pH 7.4, 10 MM MgCl2, 1 mM MnCl2, 1 mM EGTA, 50 μM [γ-^32 P]ATP, 10 μg GST-MEK, 0.5 μg GST-MAPK and 40 μg MBP in a final volume of 100 μL. […] Compounds were assessed at 10 μM for ability to inhibit incorporation of ^32 P.
To ascertain whether compounds were inhibiting GST-MEK or GST MAPK, two additional protocols were employed. In the first protocol, compounds were added to tubes containing GST-MEK, followed by addition of GST-MAPK, MBP and [γ-^32 P]ATP. In the second protocol, compounds were added to tubes containing both GST-MEK and GST-MAPK, followed by MBP and [γ-^32 P]ATP.
For evaluation of direct MEK activity, 10 μg GST-MEK1 was incubated with 5 μg of a glutathione S-transferase fusion protein containing p44MAP kinase with a lysine to alanine mutation at position 71 (GST-MAPK-KA). This mutation eliminates kinase activity of MAPK, so only kinase activity attributed to the added MEK remains. Incubations were 15 minutes at 30° C in a final volume of 50 μL containing 50 mM Tris (pH 7.5), […], […], and 10 μM [γ-^32 P]ATP. The reaction was stopped by addition of Laenunli SDS sample buffer and phosphorylated GST-MAPK-KA was resolved by electrophoresis on a 10% polyacrylamide gel. Radioactivity incorporated into GST-MAPK-KA was determined by autoradiography, and subsequently by excision of the bands followed by scintillation counting. […] When these sites are phosphorylated, MEK activity is increased. Phosphorylation of these sites can be mimicked by mutation of the serine residues to glutamate. For this assay, 5 μg GST-MEK-2E was incubated with 5 μg GST-MAPK-KA for 15 minutes at 30° C. in the same reaction buffer as described above. Reactions were terminated and analyzed as above.

Sequence of MEK (Q02750 whole entry, the tested form may be a part): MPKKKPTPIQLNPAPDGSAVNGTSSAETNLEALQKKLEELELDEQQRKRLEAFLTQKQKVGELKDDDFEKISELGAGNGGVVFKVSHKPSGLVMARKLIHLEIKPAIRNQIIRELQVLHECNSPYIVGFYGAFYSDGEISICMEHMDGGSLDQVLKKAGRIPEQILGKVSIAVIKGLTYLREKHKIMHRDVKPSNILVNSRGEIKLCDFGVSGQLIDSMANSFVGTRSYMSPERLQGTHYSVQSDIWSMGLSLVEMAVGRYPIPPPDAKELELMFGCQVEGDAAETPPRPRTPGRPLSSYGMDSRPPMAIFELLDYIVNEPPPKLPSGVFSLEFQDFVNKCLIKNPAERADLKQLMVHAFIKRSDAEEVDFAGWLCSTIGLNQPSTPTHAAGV

As a reminder, the IC50 is the concentration that gives 50% inhibition. Low readings indicate greater potency, high ones weaker potency. Turning to `Cc1cc(I)ccc1Nc1cc(F)ccc1C(=O)NO` [Example 1a, 4-Fluoro-N-hydroxy-2-(4-iodo-2-methyl-phenylamino)-benzamide], the concentration for half-maximal inhibition (IC50) in test [1] came to 50 nM.

Take `Cc1cc(I)ccc1Nc1c(C(=O)NO)cc(Br)c(F)c1F` [Example 2a, 5-Bromo-3,4-difluoro-N-hydroxy-2-(4-iodo-2-methyl-phenylamino)-benzamide]: the midpoint of inhibition in test [1], the IC50, lay at 30 nM.

Consider `Cc1cc(Br)ccc1Nc1cc(F)ccc1C(=O)NO` [Example 3a, 2-(4-bromo-2-methyl-phenylamino)-4-fluoro-N-hydroxy-benzamide], for which the IC50 is 72 nM in test [2] (Table 2) and 3000 nM in test [1].

For the compound `Cc1cc(I)ccc1Nc1ccc(Cl)cc1C(=O)NO` [Example 4a, 5-Chloro-N-hydroxy-2-(4-iodo-2-methyl-phenylamino)-benzamide], in test [1], the half-inhibitory concentration (IC50) was 1000 nM.

Compound `Cc1cc(I)ccc1Nc1ccc(Cl)cc1C(=O)N(C)O` [Example 5a, 5-Chloro-N-hydroxy-2-(4-iodo-2-methyl-phenylamino)-N-methyl-benzamide] showed a 50% inhibitory concentration (IC50) in test [1] of around 30000 nM.

In the case of `Cc1cc(I)ccc1Nc1ccc(Cl)cc1C(=O)NOC1CCCCO1` (stereo not shown) [Example 6a, 5-Chloro-2-(4-iodo-2-methyl-phenylamino)-N-(terahydropyran-2-yloxy)benzamide], in test [1], the concentration for half-maximal inhibition (IC50) was around 30000 nM.

In the case of `CONC(=O)c1cc(Cl)ccc1Nc1ccc(I)cc1C` [Example 7a, 5-Chloro-2-(4-iodo-2-methyl-phenylamino)-N-methoxybenzamide], the concentration for half-maximal inhibition (IC50) in test [1] was below 30000 nM.

With `Cc1cc(F)ccc1Nc1cc(F)ccc1C(=O)NO` [Example 8a, 4-Fluoro-N-hydroxy-2-(4-fluoro-2-methyl-phenylamino)-benzamide], the half-maximal inhibitory concentration (IC50) in test [1] came out at 3000 nM.

Take `Cc1ccccc1Nc1cc(F)ccc1C(=O)NO` [Example 9a, 4-Fluoro-N-hydroxy-2-(2-methylphenylamino)-benzamide]: the IC50 in test [1] was 1000 nM.

As to `Cc1cc(Cl)ccc1Nc1cc(F)ccc1C(=O)NO` [Example 11a, 4-Fluoro-N-hydroxy-2-(4-cluoro-2-methyl-phenylamino)-benzamide], the results for the IC50 in test [2] (Table 2) and in test [1] were 334 nM and 500 nM, respectively.

`CONC(=O)c1ccc(F)c(F)c1Nc1ccc(I)cc1C` [Example 14a, 3,4-Difluoro-2-(4-iodo-2-methyl-phenylamino)-N-N-methoxy-benzamide] yielded a concentration for half-maximal inhibition (IC50) in test [1] above 2000 nM.

The compound `Cc1cc(I)ccc1Nc1cc(F)ccc1C(=O)NOCc1ccoc1` [Example 20a, 4-Fluoro-N-(furan-3-ylmethoxy)-2-(4-iodo-2-methyl-phenylamino)-benzamide] had a 50% inhibitory concentration (IC50) in test [1] of 170 nM.

`CC=CCONC(=O)c1cc(Br)c(F)c(F)c1Nc1ccc(I)cc1C` [Example 24a, 5-Bromo-N-(but-2-enyloxy)-3,4-difluoro-2-(4-iodo-2-methyl-phenylamino)-benzamide] showed an IC50 in test [1] of 120 nM.

With `C#CCCONC(=O)c1ccc(F)c(F)c1Nc1ccc(I)cc1C` [Example 29a, N-(But-3-ynyloxy)-3,4-difluoro-2-(4-iodo-2-methyl-phenylamino)-benzamide], the half-maximal inhibitory concentration (IC50) in test [1] came to 730 nM.

On to `Cc1cc(I)ccc1Nc1cc([N+](=O)[O-])ccc1C(=O)O` [Example 30, 2-(4-Iodo-2-methyl-phenylamino)-4-nitro-benzoic acid], for which it took 105000 nM to reach half-maximal inhibition in test [2] (Table 1) (IC50).

In turn, `Cc1cc(I)ccc1Nc1c(C(=O)NOCC#Cc2cccc(F)c2)ccc(F)c1F` [Example 34a, 3,4-Difluoro-N-[3-(3-fluoro-phenyl)-prop-2-ynyloxy]-2-(4-iodo-2-methyl-phenylamino)-benzamide] returned an IC50 in test [1] of 1500 nM.

For the compound `Cc1cc(I)ccc1Nc1c(C(=O)NOCC#Cc2ccccc2F)ccc(F)c1F` [Example 36a, 3,4-Difluoro-N-[3-(2-fluoro-phenyl)-prop-2-ynyloxy]-2-(4-iodo-2-methyl-phenylamino)-benzamide], in test [1], the IC50 came out at 70 nM.

Regarding `CCONC(=O)c1ccc(F)c(F)c1Nc1ccc(I)cc1C` [Example 40a, N-Ethoxy-3,4-difluoro-2-(4-iodo-2-methyl-phenylamino)-benzamide], half-maximal inhibition in test [1] (IC50) required 125 nM.

Compound `CCN(CC)C(=O)c1ccc(F)cc1Nc1ccc(I)cc1C` [Example 43, N,N-Diethyl-4-fluoro-2-(4-iodo-2-methyl-phenylamino)-benzamide] yielded a concentration for half-maximal inhibition (IC50) in test [2] (Table 1) above 1000 nM.

In turn, `CCCONC(=O)c1ccc(F)c(F)c1Nc1ccc(I)cc1C` [Example 43a, 3,4-Difluoro-2-(4-iodo-2-methyl-phenylamino)-N-propoxy-benzamide] registered an IC50 in test [1] of 100 nM.

Take `Cc1cc(I)ccc1Nc1c(C(=O)NOC(C)C)ccc(F)c1F` [Example 47a, 3,4-Difluoro-2-(4-iodo-2-methyl-phenylamino)-N-isopropoxy-benzamide]: the midpoint of inhibition in test [1], the IC50, lay at 130 nM.

In the case of `Cc1cc(I)ccc1Nc1c(C(=O)NOC2CCC2)ccc(F)c1F` [Example 50a, N-Cyclobutyloxy-3,4-difluoro-2-(4-iodo-2-methyl-phenylamino)-benzamide], the IC50 in test [1] was found to be 220 nM.

For `Cc1cc(I)ccc1Nc1c(C(=O)NOCC2CC2)cc(Br)c(F)c1F` [Example 58a, 5-Bromo-N-cyclopropylmethoxy-3,4-difluoro-2-(4-iodo-2-methyl-phenylamino)], the IC50 is 18 nM in test [2] (Table 2) and 14 nM in test [1].

Compound `C=C(C)CONC(=O)c1ccc(F)c(F)c1Nc1ccc(I)cc1C` [Example 66a, 3,4-Difluoro-2-(4-iodo-2-methyl-phenylamino)-N-(2-methyl-allyloxy)-benzamide] yielded an IC50 in test [1] of 130 nM.

With `C#CCONC(=O)c1ccc(F)c(F)c1Nc1ccc(I)cc1C` [Example 71a, 3,4-Difluoro-2-(4-iodo-2-methyl-phenylamino)-N-(prop-2-ynyloxy)-benzamide], the IC50 in test [1] turned out to be 390 nM.

Turning to `Cc1cc(I)ccc1Nc1cc(F)ccc1C(=O)NOCc1ccccc1` [Example 77a, 4-Fluoro-2-(4-iodo-2-methyl-phenylamino)-N-phenylmethoxy-benzamide], the midpoint of inhibition in test [2] (Table 2), the IC50, lay at 280 nM.

For the compound `Cc1cc(I)ccc1Nc1ccc(F)cc1C(=O)NOCc1ccccc1` [Example 186, N-Benzyloxy-5-fluoro-2-(4-iodo-2-methyl-phenylamino)-benzamide], the IC50 in test [2] (Table 1) came to 555 nM.

The compound `Cc1cc(I)ccc1Nc1ccc([N+](=O)[O-])cc1C(=O)NCCO` [Example 195, N-(2-Hydroxy-ethyl)-2-(4-iodo-2-methyl-phenylamino)-5-nitro-benzamide] returned a half-inhibitory concentration (IC50) in test [2] (Table 1) of 12800 nM.

The record behind these values is patent US6251943A, “Method of treating or preventing septic shock by administering a MEK inhibitor” (Warner-Lambert Company, priority 1999, dated 2001).
